This note sets out measurements from PubChem BioAssay (NCI).

“And” between values parts separate entries of the source, which are not always exact repeats. Equal values may be shown once.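 All cell lines were grown in 96-well plates and treated with compound for 48 hours. GI50 marks 50% less growth. TGI: total growth inhibition.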

What all share (assay): growth of human tumour cells (NCI), 48 h
In experiment [1] the test system is MALME-3M melanoma.
Experiment [2] concerns IGROV1 ovarian.
Experiment [3] has as its system SNB-75 CNS.
For experiment [4], the system named is M14 melanoma.
The subject of experiment [5] is UO-31 renal.
The test system of experiment [6] is HS 578T breast.
The test system of experiment [7] is MCF7 breast.
The test system of experiment [8] is BT-549 breast.
In experiment [9] the test system is UACC-62 melanoma.
Experiment [10] has as its system LOX IMVI melanoma.

Take `Cn1c2ccccc2c(=O)c2c(O)cc3c(c21)CC(C1(C)CO1)O3` (configuration not stated): the TGI was 28.4 µM in experiment [1]; 26.9 µM in [2]; 24 µM in [3]; 2.93 µM in experiment [4]; 4.09 µM in experiment [5]; 5.31 µM in experiment [6]. Also, the TGI in [7] amounted to 1.89 µM; in experiment [8] it was 4.5 µM; in experiment [9] it was 4.9 µM; in [10] it was 0.0613 µM.
`NC1CCC(Nc2nc(NCc3cc(Cl)ccc3O)c3ncn(C4CCCC4)c3n2)CC1` (configuration not stated): the GI50 in [2] was 0.204 µM; in experiment [3] it was 0.114 µM; in experiment [4], 0.162 µM; in experiment [5], 0.227 µM; in experiment [6] it was 0.222 µM; in [7], 0.104 µM. Further, the GI50 was 0.262 µM in experiment [8], 0.149 µM in experiment [9] and 0.537 µM in experiment [10]. Further, the TGI in [2] stood at 0.771 µM; in experiment [3], 0.33 µM; in experiment [4], 0.33 µM; in experiment [5], 0.599 µM; in experiment [6], 0.893 µM; in [7], 0.318 µM. Moreover, the TGI in experiment [8] was determined as 0.877 µM; in experiment [9] it was 0.335 µM; in experiment [10], 5 µM.
For the molecule `O=C1CCCCC=C1C[N+](=O)[O-]`, the GI50 was 30.3 µM in experiment [1]; 33 µM in [2]; 25.5 µM in experiment [3]; 19.3 µM in [4]; 38.2 µM in experiment [5]; 41.8 µM in experiment [6]. Also, the GI50 was 20 µM in experiment [7], 26 µM in [8], 18.7 µM in experiment [9] and 18.4 µM in experiment [10]. For the same molecule, the TGI in experiment [1] was 53.5 µM; in experiment [2], over 100 µM; in [3] it was 68.8 µM; in experiment [4], 45 µM; in [5] it was over 100 µM; in experiment [6], over 100 µM. Further, the TGI amounted to 55.1 µM in experiment [7], 61.4 µM in [8], 34.6 µM in experiment [9] and 39.1 µM in [10].
For the molecule `O=S(=O)(c1ccc(Br)cc1)N1CCN(S(=O)(=O)c2ccc(Br)cc2)CC1`, the TGI in experiment [1], in experiment [2], in experiment [3], in experiment [4], in [5] and in [6] was over 100 µM each time. The TGI in experiment [7], in [8], in [9] and in experiment [10] was over 100 µM each time.
For `COc1cc2nc(-c3ccc(Cl)cc3)cc(OCCCN3CCCC3)c2cc1OC`, the GI50 is 1.68 µM in [1]; 0.881 µM in experiment [2]; 1.73 µM in experiment [3]; 0.402 µM in [4]; 1.72 µM in experiment [5]; 1.89 µM in [6]. Further, the GI50 was 1.33 µM in experiment [7], 1.77 µM in [8], 2.03 µM in experiment [9] and 0.191 µM in experiment [10]. In addition, the TGI in experiment [1] stood at 4.52 µM; in experiment [2] it was 11.8 µM; in [3] it was 5.09 µM; in experiment [4] it was 1.51 µM; in [5] it was 6.63 µM; in [6], 6.68 µM. Further, the TGI in experiment [7] is 3.07 µM; in experiment [8], 7.37 µM; in experiment [9], 4.57 µM; in experiment [10], 0.446 µM.
For the molecule `COC(C(=O)C(O)C(C)O)C1Cc2cc3cc(OC4CC(OC5CC(O)C(O)C(C)O5)C(O)C(C)O4)c(C)c(O)c3c(O)c2C(=O)C1OC1CC(OC2CC(O)C(OC3CC(C)(O)C(O)C(C)O3)C(C)O2)C(O)C(C)O1` (configuration not stated), the GI50 in experiment [1] was 0.0112 µg/mL and 0.000642 µg/mL; in experiment [2], 0.0112 µg/mL and 0.00231 µg/mL; in experiment [3], 0.0112 µg/mL and 0.000782 µg/mL; in [4], 0.047 µg/mL and 0.0293 µg/mL; in experiment [5], 0.0725 µg/mL and 0.00356 µg/mL; in experiment [6], 0.0164 µg/mL. For the same molecule, the GI50 in experiment [7] is 0.00053 µg/mL; in experiment [8] it was 0.015 µg/mL; in [9] it was 0.0112 µg/mL and 0.00054 µg/mL; in [10], 0.00217 µg/mL. The TGI was 0.134 µg/mL in experiment [6], 0.73 µg/mL in experiment [7], 0.0739 µg/mL in experiment [8] and 15 µg/mL in [10].
For `O=C1C(Nc2ccc(Br)cc2)=C(I)C(=O)c2ncccc21`, the GI50 is 0.731 µM in experiment [1]; 0.678 µM in experiment [2]; 1.24 µM in [3]; 0.815 µM in [4]; 0.641 µM in experiment [5]; 1.59 µM in experiment [6]. Further, the GI50 in experiment [8] is 1.85 µM; in experiment [9] it was 1.16 µM; in experiment [10], 0.668 µM. The TGI in [1] came to 1.41 µM; in experiment [2] it was 1.36 µM; in experiment [3] it was 7 µM; in experiment [4] it was 1.93 µM; in [5], 1.85 µM; in experiment [6] it was 26 µM. For the same molecule, the TGI in [8] was determined as 5.9 µM; in experiment [9], 2.96 µM; in experiment [10], 1.41 µM.
As to `CCOC(=O)c1ccc2c(c1)nc(/C=C/c1ccc(Cl)cc1)n2-c1cc(C(C)(C)C)[nH]n1`, the GI50 in [1] is 2.8 µM; in experiment [2], 5.09 µM; in experiment [3] it was 1.9 µM; in experiment [4] it was 20.9 µM; in experiment [5], 2.71 µM; in experiment [6], 3.6 µM. Moreover, the GI50 in [7] was 2.71 µM; in [8], 4.54 µM; in [9] it was 1.47 µM. Also, the TGI in experiment [1] is 18.5 µM; in experiment [2], 33.8 µM; in [3] it was 5.51 µM; in experiment [4] it was over 100 µM; in experiment [5], 25.3 µM; in [6], 61.8 µM. Besides, the TGI in experiment [7] turned out to be 10.2 µM; in experiment [8], 25.6 µM; in experiment [9], 4.79 µM.
Turning to `NS(=O)(=O)c1ccc(NCc2cnc3ccccc3n2)cc1`, the TGI in experiment [1], in experiment [2], in experiment [3], in [4], in experiment [5] and in [6] was over 100 µM throughout. Moreover, the TGI in experiment [7], in experiment [8] and in experiment [9] was over 100 µM throughout.
